Values joined by “and” are separate entries in the source; they are usually repeats but may differ in a detail not shown here. Equal entries are not always repeated. Where two headings read alike, the source gives them in different places.
How the values were obtained:
[1] = system: CDKL5 male hemizygous (-/Y) mice; experiment: Hindpaw clasping (amplexus) test in CDKL5 knock-out mice model; assay type: in vivo; conditions: Compound A 5 mg/kg once per day oral gavage; vs CDKL5-/Y vehicle Group (2); FIG. 1
Method: A hind paw clasping test was performed in accordance with the procedures outlined by Wang et al., PNAS, vol. 109, no. 52, pp. 21516-21521 (2012). The test is done in a CDKL5 knock-out mice model. Mice are suspended for a two-minute trial. If clasping occurs for two seconds, the mouse is positive for CDKL5 deficiency, which is a neurological impairment. Wang et al. noted the CDKL5 mutant mice, but no quantification was made. Tang et al., J. Neurosci. 37(31):7420-7437 (2017) reported 17/18 (94%) hemi male mice were positive for the clasp phenotype.
(§1) Neurobehavioral assays were run when the mice were 8-10 weeks old. Tissues were collected at the end of the study to determine plasma and CNS PK.
If clasping occurs for two seconds, the mouse is positive for CDKL5 deficiency.

[2] = system: Male FMR1 knockout mice; experiment: Open Field Test in FMR1 mouse model of FXS; assay type: in vivo; conditions: Compound A 5 mg/kg oral for two weeks; FIGS. 7 and 8
Method: Male FMR1 knockout (“KO”) mice and wild-type (“WT”) mice were bred at PsychoGenics. These mice were handled and chosen according to Example 5. However, the open field test started at 10 weeks of age, following 2 weeks of dosing. Three groups of mice were tested as follows: • Group (1): WT—Vehicle Group: a vehicle was orally administered for two weeks at a dose volume of 10 mL/kg. On testing days, the vehicle was administered 150 minutes prior to testing. • Group (2): FMR1 KO—Group: a vehicle was orally administered for two weeks at a dose volume of 10 mL/kg.
Open field chambers made of Plexiglas square chambers (27.3×27.3×20.3 cm; Med Associates Inc., St Albans, VT) surrounded by infrared photo beams (16×16×16) were used to measure horizontal and vertical activity of tested mice. The mice were brought into the chamber for at least 1 hour acclimation to the experimental room conditions prior to testing. Following 150 minutes of pre-treatment, the mice were placed in the center of the chamber for a 60-minute test period. After the 60-minutes, the mice were placed back into their home cage. During the test period, locomotor activity was measured in 5 minute intervals and total distance traveled was measured.

[3] = Plasma and brain exposure analysis after oral administration; assay type: in vivo; conditions: CDKL5-/Y mice; for concentration at 24 h: male, CDKL5-/Y, mouse, 5 mg/kg
Text: as §1
In Table 1, “LLOQ” is the “lower limit of quantification”, and it is used to indicate the sensitivity of the assays. The numbers in plasma and brain columns are in ng/mL for plasma and ng/g for brain.

[4] = Fraction unbound in plasma (fu, plasma); assay type: in vitro ADME; conditions: mouse
Text: An in vitro profile of the PDE10A inhibitor was created for the CDKL5-/Y mice.

[5] = system: Male FMR1 knockout mice; experiment: Fear Conditioning test in FMR1 mouse model of FXS; assay type: in vivo
Method: After completion of the open field test described in Example 6, a Fear Conditioning test was conducted on the mice of Groups (1)-(3) in a fear conditioning system manufactured by Coulbourn Instruments (PA, USA).
On day 1, mice were placed in a conditioning chamber to habituate to the context for 2 minutes […]. A tone was presented for 20 seconds. 30 seconds after the CS ended, a foot shock (1 s, 0.5 mA) was presented (US). The pairing of the CS and US was repeated a total of 3 times, with an interval of 60 seconds between pairings. Mice remained in the conditioning chamber for another 60 seconds, and then returned to their home cage.
In the morning of day 2, mice were tested for contextual memory. Mice were placed in chambers for 5 minutes. In the afternoon of day 2, mice were tested for cued memory. Mice were placed in the conditioning chamber to habituate to the context for 2 minutes (Pre-Cue). Then, the CS was presented for a total of three times for 20 seconds, with 60 second inter-trial intervals. Freezing behavior, defined as the complete lack of movement, was captured automatically with a video system and Freeze View software (Coulbourn Instruments, PA, USA).

[6] = system: CDKL5 male hemizygous (-/Y) mice; experiment: Open Field Test in CDKL5 knock-out mice model; assay type: in vivo; conditions: Compound A 5 mg/kg once per day oral; 15-minute trial; vs Groups (1) and (2); FIGS. 2A, 2B
Method: Spontaneous activity in an Open Field Arena is commonly used to assess general activity and ambulation. Mice were placed in the center of an arena for a fifteen-minute trial. The horizontal, vertical (rearing) and center activity are dependent variables.
FIG. 2A provides the results per minute from 0 to 15 minutes. FIG. 2B provides the results in five-minute intervals from 5 to 15 minutes.

[7] = system: Male FMR1 knockout mice; experiment: Suppression of audiogenic seizures in FMR1 mouse model of Fragile X Syndrome; assay type: in vivo; conditions: 125 dB tone, vs vehicle Group (1); for Latency to seizure: 5-minute test, Compound A 5 mg/kg oral 150 min prior, MPEP 30 mg/kg i.p. 30 min prior, FIG. 5; for Percent seizure (seizure rates): Compound A 5 mg/kg oral, MPEP 30 mg/kg i.p., p<0.05, FIG. 6
Method: Male FMR1 knockout mice were bred at PsychoGenics. The mice were housed in OPTI-Mice ventilated cages for the duration of the study. All mice were acclimated to the environment, examined, handled, and weighed prior to initiation of the study to assure adequate health and suitability and to minimize non-specific stress associated with manipulation. During the course of the study, 12/12 light/dark cycles were maintained. The room temperature was maintained between 20 and 23° C. with a relative humidity maintained around 50%. Chow and water were provided ad libitum for the duration of the study. Each mouse was randomly assigned across treatment groups. The testing was performed during the animals' light cycle phase at 3 weeks of age.
Prior to audiogenic seizures, on test day, three groups of mice were pre-treated as follows: • Group (1): a vehicle orally administered at a dose volume of 10 mL/kg, 150 minutes prior to testing. • Group (2): 6-Methyl-2-(phenylethynyl) pyridine HCI (“MPEP”) (Sigma Aldrich; 30 mg/kg) was dissolved in sterile injectable saline and was administered by intraperitoneal injection at a dose volume of 10 mL/kg, 30 minutes prior to testing.
After the pre-treatments, the mice of Groups (1)-(3) were individually placed in a Plexiglas chamber and allowed to explore for 15 seconds. Then, they were exposed to a 125 dB tone. The observer was blinded to the pre-treatment conditions during the test. The mice were scored by the observer based on their response, latency, and seizure intensity during a 5-minute test as follows: • 0: no response • 1. wild running and jumping • 2: clonic seizures • 3: clonic-tonic seizures • 4: tonic seizures • 5: respiratory arrest
The following endpoints were reported. […] Latency to seizure (max 300 sec. if no seizure) • 2. Percent seizure • 3. Seizure score

Structure (SMILES)	percentage of no clasping [1]	hyperactivity (total distance traveled, 60-minute open field test) [2]	Concentration in mouse plasma, individual sample ([3]; oral 5 mg/kg once per day, 14 days, 24 hours after the last dose, LLOQ 0.1)	Concentration in mouse brain, individual sample ([3]; oral 5 mg/kg once per day, 14 days, 24 hours after the last dose, LLOQ 0.5)	concentration at 24 h ([3]; brain, po, oral 5 mg/kg once per day, 14 days, 24 hours after the last dose, LLOQ 0.5, read-out: Concentration in mouse brain, individual sample)	concentration at 24 h ([3]; brain, po, oral 5 mg/kg once per day, 14 days, 24 hours after the last dose, N=6-7, read-out: Concentration in mouse brain, Mean)	concentration at 24 h ([3]; plasma, oral, 24 hours after the last administration, read-out: plasma concentration in all mice vs target IC50 in vivo)	concentration at 24 h ([3]; plasma, po, oral 5 mg/kg once per day, 14 days, 24 hours after the last dose, N=6-7, read-out: Concentration in mouse plasma, Mean)	fraction unbound [4]	freezing response, contextual fear conditioning time course ([5]; 5 minute test, minute 2 and minute 5, Compound A 5 mg/kg oral, FIG. 10)	freezing behavior during Pre-Cue, cued fear conditioning ([5]; ANOVA between treatment groups, FIG. 11)	freezing response during Cue, cued fear conditioning ([5]; FMR1 mice, p=0.06, FIG. 11)	freezing response during Post-Cue, cued fear conditioning ([5]; FMR1 mice, FIG. 11)	total distance traveled in the open field [6]	Latency to seizure [7]	Percent seizure (seizure rates) [7]
COc1cn(-c2ccc(-n3cccn3)cc2F)nc(-c2ccnn2-c2ccccc2)c1=O [Compound A, 1-[2-fluoro-4-(1H-pyrazol-1-yl)phenyl]-5-methoxy-3-(1-phenyl-1H-pyrazol-5-yl)pyridazin-4(1H)-one]	increased the percentage of no clasping	suppresses hyperactivity	4.3 ng/mL and 8.0 ng/mL and 4.4 ng/mL and 4.8 ng/mL and 2.8 ng/mL and 7.0 ng/mL and 3.1 ng/mL	48.2 ng/g and 38.9 ng/g and 64.5 ng/g and 44.9 ng/g and 43.8 ng/g	36.3 ng/g	46.1 ng/g	> 1.1 ng/mL	4.9 ng/mL	0.116	increased freezing response	no significant differences	strong trend to increasing freezing response	increased freezing response	significantly suppressed the total distance traveled	increased the latency to seizure	significantly decreased seizure rates
Cc1cccc(C#Cc2ccccc2)n1.Cl [MPEP, 6-Methyl-2-(phenylethynyl) pyridine HCl, reference compound]															increased the latency to seizure	significantly decreased seizure rates

From US20250288581A1, “BALIPODECT FOR TREATING OR PREVENTING AUTISM SPECTRUM DISORDERS” (TAKEDA PHARMACEUTICAL COMPANY LIMITED, priority 2018, published 2025)
